Source: patent publication US20260284152A1, “COMPOSITION COMPRISING GV1001 FOR PREVENTING OR TREATING MACULAR DEGENERATION” (GEMVAX & KAEL CO., LTD., priority 2023, published 2026)

Columns and labels:
[1] = test system: C57BL/6 mice injected with NaIO3; assay: Short-term administration in NaIO3 mouse model of age-related macular degeneration (RPE/choroid flat mount, phalloidin); assay type: in vivo; conditions: NaIO3 20 mg/kg IV mice
Source text: Mice injected with sodium iodate (NaIO3) are used as a representative model of age-related macular degeneration. A mouse model of age-related macular degeneration was established by injecting NaIO3 into C57BL/6 mice, thereby inducing oxidative stress specific to retinal pigment epithelial cells and causing damage.
To determine whether the disruption of tight junctions in the retinal pigment epithelium caused by NaIO3 administration was inhibited by GV1001, the retinal pigment epithelium/choroid (RPE/choroid) was flat-mounted, and the junctions between epithelial cells were stained with phalloidin samples and observed using a confocal microscope.
To determine whether the disruption of tight junctions in the retinal pigment epithelial cell layer was inhibited by GV1001, the retinal pigment epithelial layer/choroid was flat-mounted, and the junctions between epithelial cells were stained with phalloidin and observed using a confocal microscope.

[2] = test system: retinal pigment epithelial cell line ARPE-19; assay: Reduction of reactive oxygen species (DCF-DA fluorescence) in H2O2-treated retinal pigment epithelial cells; assay type: cell-based
Source text: (§1) Reactive oxygen species were generated by treating retinal pigment epithelial cell line ARPE-19 with hydrogen peroxide (H2O2).
(§2) Degenerated retinal pigment epithelial cells that appear in age-related macular degeneration were set as a model cell line, and epithelial loss of retinal pigment epithelial cells was induced.
Using DCF-DA as a reactive oxygen species dye sample, the change in the level of reactive oxygen species in retinal pigment epithelial cells (ARPE-19) induced by GV1001 was confirmed by fluorescence microscopy, and the results are shown in FIGS. 6A and 6B. DCF-DA fluorescence intensity increased when oxidative stress was induced by H2O2, but decreased by treatment with metformin, a positive control.

[3] = test system: retinal pigment epithelial cell line ARPE-19; assay: Reduction of epithelial-mesenchymal transition (cadherin 1 / vimentin, confocal microscope) in H2O2-treated retinal pigment epithelial cells; assay type: cell-based; conditions: ARPE-19, H2O2 50 μM
Source text: as §1, §2
The degree of epithelial-mesenchymal transition, which indicates degeneration of retinal pigment epithelial cells, was confirmed by observing changes in cadherin 1 as an epithelial cell marker, and vimentin as a mesenchymal cell marker, using a confocal microscope, and the results are shown in FIG. 7.

[4] = test system: C57BL/6 mice injected with NaIO3; assay: Long-term administration in NaIO3 mouse model of age-related macular degeneration (RPE/choroid flat mount, phalloidin); assay type: in vivo; conditions: NaIO3 20 mg/kg IV mice; for Tight junction structure of the retinal pigment epithelium: long-term post-treatment; for Tight junction structure of the retinal pigment epithelial layer: long-term pre-treatment
Source text: A mouse model of age-related macular degeneration was established by injecting […] into C57BL/6 mice and inducing oxidative stress specifically in retinal pigment epithelial cells to cause damage.
The GV1001 dose determined through an efficacy evaluation test by short-term administration was used for efficacy evaluation in long-term administration.
The animal experimental group for verification of efficacy in reducing retinal pigment epithelial degeneration by long-term administration (3 months) of GV1001 was set up as shown in Table 4 below.
To determine whether the disruption of tight junctions in the retinal pigment epithelium was inhibited by GV1001, the retinal pigment epithelium/choroid was flat-mounted, and the junctions between epithelial cells were stained with phalloidin-stained samples and observed using a confocal microscope to determine the degree of disruption of tight junctions.
To determine whether the disruption of the tight junctions in the retinal pigment epithelium was reduced by long-term GV1001 administration, the retinal pigment epithelium/choroid was flat-mounted, and the junctions between epithelial cells were stained with phalloidin and observed using a confocal microscope.

Compound	Tight junction structure of the retinal pigment epithelial cell layer ([1]; short-term post-treatment, 0.5 mg/kg SC three times within one week from 10 days after NaIO3)	Tight junction structure of the retinal pigment epithelial cell layer ([1]; short-term post-treatment, 1.0 mg/kg SC three times within one week from 10 days after NaIO3)	Tight junction structure of the retinal pigment epithelial cell layer ([1]; short-term pre-treatment, 0.1 mg/kg SC three times a week for two weeks)	DCF-DA fluorescence intensity (reactive oxygen species) ([2]; ARPE-19, H2O2 50 μM, post-treatment (2 h after 24 h H2O2), 0.1 μM)	DCF-DA fluorescence intensity (reactive oxygen species) ([2]; ARPE-19, H2O2 50 μM, post-treatment (2 h after 24 h H2O2), 10 μM)	DCF-DA fluorescence intensity (reactive oxygen species) ([2]; ARPE-19, H2O2 50 μM, pre-treatment (2 h before 24 h H2O2), 0.01 μM)	Epithelial-mesenchymal transition (cadherin 1, vimentin) ([3]; post-treatment, 10 μM)	Epithelial-mesenchymal transition (cadherin 1, vimentin) ([3]; pre-treatment, 0.01 μM)	Tight junction structure of the retinal pigment epithelium ([4]; 0.1 mg/kg SC three times a week for 10 weeks)	Tight junction structure of the retinal pigment epithelium ([4]; 1.0 mg/kg SC three times a week for 10 weeks)	Tight junction structure of the retinal pigment epithelial layer ([4]; 0.1 mg/kg SC three times a week for 12 weeks)	Tight junction structure of the retinal pigment epithelial layer ([4]; 1.0 mg/kg SC three times a week for 12 weeks)	Tight junction structure of the retinal pigment epithelial cell layer ([1]; metformin 4 mg/mL in drinking water for 7 days before NaIO3)	DCF-DA fluorescence intensity (reactive oxygen species) ([2]; ARPE-19, H2O2 50 μM oxidative stress, metformin 1 mM positive control)	Epithelial-mesenchymal transition (cadherin 1, vimentin) ([3]; metformin 1 mM positive control)
GV1001: A peptide consisting of 16 amino acids, having the amino acid sequence of SEQ ID NO: 1, derived from human telomerase (EARPALLTSRLRFIPK; UniProt O14746 611-626, looked up, fragment)	maintained	maintained	maintained	decreased	decreased	decreased	reduced	reduced	well maintained	well maintained	well maintained	well maintained			
CN(C)C(=N)N=C(N)N [metformin, reference compound]													maintained	decreased	reduced
